# Where two headings read alike, the source gives them in different places.
# Tests used:
# [1] = tested on: quinone reductase (QR) activity in Hepa 1c1c7 cells; experiment: QR (quinone reductase) induction in Hepa 1c1c7 cells; type: cell-based; conditions: for EC (2-fold QR induction) / QR induction at a single dose: Hepa 1c1c7 cells; for EC (2-fold QR induction): read-out: CD values (dose where there was a doubling of QR); for QR induction in the presence of increasing exogenous GSH: 31 μg/ml conjugate, increasing exogenous GSH in medium; for QR induction at a single dose: 31 μg/ml
# Experimental: Specifically, the mixed disulfide conjugates as prepared similar to the pure conjugates of Example 10 or purified from mixtures prepared in Example 11 were used with the Hepa 1c1c7 cell line as disclosed in Prochaska, et al., 1992. Each conjugate was tested over a dose range and increases in quinone reductase (QR) activity was used as a biomarker for phase II enzyme induction, an established mechanism of cancer chemoprotection. […] Results were considered valid as long as cell viability in the assay was >50% as recommended by the established protocol. Typical experimental results are shown for the CySSPe conjugate (FIG. 11), and summary results are provided for all conjugates in terms of relative potency (CD values) for QR induction (Table 8).
# (§1) Generally, redox modulation and thiol upregulation is considered a defense mechanism to pathological processes in cells. These mechanisms were analyzed in the mixed disulfide conjugates in both Hepa 1c1c7 and RAW 264.7 macrophage cell lines. Evidence of redox modulation was obtained in terms of 1) attenuation of QR inducing activity with increasing reducing capacity of cells through exogenous GSH addition, 2) increases in cellular glutathione (GSH) and 3) export/enrichment of thiols in the extracellular fluid.
# [2] = tested on: nitric oxide (NO) in lipopolysaccharide-activated macrophages (RAW 264.7); experiment: Inhibition of NO evolution in lipopolysaccharide-activated macrophages (RAW 264.7), Griess reagent; type: cell-based, murine; conditions: Mus musculus, RAW264.7; for IC50: LPS 1 μg/ml, 24 hour incubation; for inhibition at 125 µg/mL: at 125 μg/ml, the highest level tested
# Experimental: Each conjugate was tested over a dose range and the evolution of NO over the 24 hour incubation period was measured as […] by the Griess reagent using established protocols ([…] et al., 1996). The dose where a 50% inhibition of NO evolution occurred (IC50) relative to the control cells without added conjugate was estimated by sigmoidal curve-fitting as a relative measure of anti-inflammatory activity, with lower IC50 values representing greater potency. […] Typical experimental results are shown for the GSSPe conjugate (FIG. 12), and summary results are provided for all conjugates in terms of relative potency (IC50 values) for NO inhibition (Table 9).
# [3] = tested on: intracellular GSH in Hepa 1c1c7 cells; experiment: Intracellular GSH content of Hepa 1c1c7 cells after conjugate addition; type: cell-based; conditions: over the first 10 hours
# Experimental: Another related consequence of adding the conjugates to the cells was an increase in cellular GSH. This response is considered to be a general antioxidant defense as well as one that provides specific protection to cancer (Kim et al., 2009) and was assessed in the next Example.
# Specifically, GSSP was prepared similar to the GSSR conjugates in Example 11 and added to Hepa 1c1c7 cells. The changes in intracellular GSH content was measured after lysis of the cells at pre-determined intervals after addition of the GSSP conjugate.
# RAW 264.7 cells = experiment: Thiol export (extracellular thiols, DTNB) by macrophages; type: cell-based, murine; conditions: compared with other species or control cells
# Experimental: FIG. 15 depicts the extracellular thiol concentrations of RAW 264.7 cells treated with CySSR and 5,5′-dithio-bis(2-nitrobenzoic acid) (DTNB) as analyzed in Example 31.
# as §1
# Specifically, CySSR as prepared in Example 11 was added to macrophages. Thiol export by the macrophages was then analyzed. All CySSR species tested at 31 μg/ml induced thiol export by macrophages by as much as 20-35 times level observed for untreated control cells. Thiols were measured by Ellman's reagent (DTNB). […] Cellular exporting of thiols represents another mechanism by which cells respond to oxidative stress by exporting reducing equivalents to restore extracellular redox homeostasis.
# [4] = molar equivalent of the μg/ml value
SMILES,EC (2-fold QR induction) ([1]; cell viability >50%) [µg/mL],"EC (2-fold QR induction) [1, 4] [µM]",IC50 ([2]; cell viability ≧80%) [µg/mL],"IC50 [2, 4] [µM]",elevation of intracellular GSH over control [3],inhibition at 125 µg/mL [2] [%],QR induction in the presence of increasing exogenous GSH [1],QR induction at a single dose [1],"thiol efflux / extracellular thiols, in words (RAW 264.7 cells)"
"CCCSSC[C@@H](N)C(=O)O [CySSP, S-propyl-L-mercaptocysteine]",92,470,63,320,,,,,
"CCCSSC[C@H](NC(=O)CC[C@H](N)C(=O)O)C(=O)NCC(=O)O [GSSP, S-propyl-L-mercaptoglutathione]",73,190,,,50-70%,34,,,
"C/C=C/SSC[C@H](NC(=O)CC[C@H](N)C(=O)O)C(=O)NCC(=O)O [GSSPe, S-1-propenyl-L-mercaptoglutathione]",5.3,14,4.6,16,,,,,
"CCSSC[C@@H](N)C(=O)O [CySSE, S-ethyl-L-mercaptocysteine]",76,420,102,560,,,,,
"C=CCSSC[C@@H](N)C(=O)O [CySSA, S-allyl-L-mercaptocysteine]",26,130,9,47,,,progressively attenuated,nearly a doubling of QR,
"CCSSC[C@H](NC(=O)CC[C@H](N)C(=O)O)C(=O)NCC(=O)O [GSSE, S-ethyl-L-mercaptoglutathione]",72,200,,,,25,,,
"CSSC[C@@H](N)C(=O)O [CySSM, S-methyl-L-mercaptocysteine]",89,530,48,290,,,,,
"C=CCSSC[C@H](NC(=O)CC[C@H](N)C(=O)O)C(=O)NCC(=O)O [GSSA, S-2-propenyl-L-mercaptoglutathione]",33,87,87,230,,,progressively attenuated,nearly a doubling of QR,
"CSSC[C@H](NC(=O)CC[C@H](N)C(=O)O)C(=O)NCC(=O)O [GSSM, S-methlyl-L-mercaptoglutathione]",87,250,,,,26,,,
"C/C=C/SSC[C@@H](N)C(=O)O [CySSPe, S-1-propenyl-L-mercaptocysteine]",4.8,25,21,110,,,,,about half as much thiol efflux as the others

# Source: patent publication US8481284B2, “Process of preparing conjugates of allium organosulfur compounds with amino acids, peptides, and proteins” (Wisconsin Alumni Research Foundation, priority 2009, dated 2013)
